For the test, the target named is T1, GST-RIPK1 (recombinant GST-RIPK1 kinase domain (residues 1-327)) (Homo sapiens, UniProt Q13546).
T1 construct: recombinant GST-RIPK1 kinase domain (residues 1-327) enzyme produced from baculovirus-transfected Sf21 cells; host or cells: baculovirus-transfected Sf21 insect cells
T1 sequence (Q13546 1-327): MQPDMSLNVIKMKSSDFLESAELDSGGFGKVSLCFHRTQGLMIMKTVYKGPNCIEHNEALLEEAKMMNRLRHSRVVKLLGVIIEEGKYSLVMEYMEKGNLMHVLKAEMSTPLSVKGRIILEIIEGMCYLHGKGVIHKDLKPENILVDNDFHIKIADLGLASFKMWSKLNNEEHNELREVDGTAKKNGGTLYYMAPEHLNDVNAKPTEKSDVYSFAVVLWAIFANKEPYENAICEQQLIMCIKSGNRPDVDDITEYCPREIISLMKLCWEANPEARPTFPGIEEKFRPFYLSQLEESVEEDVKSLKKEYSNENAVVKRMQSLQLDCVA
As to the kind of experiment: RIPK1-ADP-Glo Enzymatic Assay. Format: biochemical. The settings on record: ten-point titration, top compound concentration of 100000 nM; 25 nM GST-RIPK1, 300 μM ATP, 3 μM dephosphorylated-MBP; 30 min pre-incubation, 150 min reaction. The gist of the method: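 ADP-Glo luminescence quantifies ADP formed over 150 minutes by 25 nM Sf21-produced GST-RIPK1 (1-327) using 300 μM ATP and 3 μM dephosphorylated MBP, following 30-minute compound preincubation at 1% DMSO. Ten-point 1:3 series from 100000 nM gave EC50 via four-parameter sigmoidal regression.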

pEC50: −log10 of the molar value.

Usually pEC50 stands for the EC50 on a negative log10 scale, so that one unit is a factor of ten. As to `O=C1N2C(CC[C@H]2c2cnccn2)OC12CC(OCc1csc(C3CC3)n1)C2` (stereo partly drawn) [Example 18.71, (5′S)-3-[(2-cyclopropyl-1,3-thiazol-4-yl)methoxy]-5′-(pyrazin-2-yl)tetrahydro-3′H-spiro[cyclobutane-1,2′-pyrrolo[2,1-b][1,3]oxazol]-3′-one], the pEC50 was 6.10. In the case of `CCC(C)Oc1cccc(COC2CC3(C2)OC2CC[C@@H](c4cnccn4)N2C3=O)n1` (stereo partly drawn) [Example 18.13, (5′S)-3-({6-[(butan-2-yl)oxy]pyridin-2-yl}methoxy)-5′-(pyrazin-2-yl)tetrahydro-3′H-spiro[cyclobutane-1,2′-pyrrolo[2,1-b][1,3]oxazol]-3′-one] it was 7.34; in that of `COc1ccc2cc(COC3CC4(C3)OC3CC[C@@H](c5cnccn5)N3C4=O)ncc2n1` (stereo partly drawn) [Example 18.81, (5′S)-3-[(2-methoxy-1,7-naphthyridin-6-yl)methoxy]-5′-(pyrazin-2-yl)tetrahydro-3′H-spiro[cyclobutane-1,2′-pyrrolo[2,1-b][1,3]oxazol]-3′-one], 6.12; in that of `N#Cc1cccc(OC2CC3(C2)O[C@@H]2CC[C@@H](c4cnccn4)N2C3=O)c1` (stereo partly drawn) [Example 19.3, 3-{[(5′S,7a′R)-3′-oxo-5′-(pyrazin-2-yl)tetrahydro-3′H-spiro[cyclobutane-1,2′-pyrrolo[2,1-b][1,3]oxazol]-3-yl]oxy}benzonitrile], 7.70. Under `O=C1N2[C@@H](CC[C@H]2c2cc(F)cc(F)c2)O[C@]12C[C@H](Oc1ncnc3sccc13)C2` [Example 9.30, (1r,3R,5′S,7a′R)-5′-(3,5-difluorophenyl)-3-[(thieno[2,3-d]pyrimidin-4-yl)oxy]tetrahydro-3′H-spiro[cyclobutane-1,2′-pyrrolo[2,1-b][1,3]oxazol]-3′-one] stands 8.05; under `O=C1N2[C@@H](CC[C@H]2c2cnccn2)O[C@]12C[C@@H](OCc1cccnc1)C2` [Example 18.1, (1S,3S,5′S,7a′R)-5′-(pyrazin-2-yl)-3-(pyridin-3-ylmethoxy)tetrahydro-3′H-spiro[cyclobutane-1,2′-pyrrolo[2,1-b]oxazol]-3′-one], 7.00; under `O=C1N2[C@@H](CC[C@H]2c2ccccc2)OC12CC(Oc1cccc3cnoc13)C2` (stereo partly drawn) [Example 8.19], 6.60. Take `O=C1N2C(CC[C@H]2c2cnccn2)OC12CC(OCc1ccc3c(c1)CCO3)C2` (stereo partly drawn) [Example 18.108, (5′S)-3-((2,3-dihydrobenzofuran-5-yl)methoxy)-5′-(pyrazin-2-yl)tetrahydro-3′H-spiro[cyclobutane-1,2′-pyrrolo[2,1-b]oxazol]-3′-one]: the negative logarithm of the EC50 (pEC50) is 7.03. In the case of `O=C1N2[C@@H](CC[C@H]2c2cnccn2)O[C@]12C[C@H](OCc1ccccc1)C2` [Example 4.1, ((1r),3R,5′S,7a′R)-3-(benzyloxy)-5′-(pyrazin-2-yl)tetrahydro-3′H-spiro[cyclobutane-1,2′-pyrrolo[2,1-b]oxazol]-3′-one], the negative logarithm of the EC50 (pEC50) was 7.31. In the case of `N#CC1(c2ccc(COC3CC4(C3)OC3CC[C@@H](c5cnccn5)N3C4=O)c(Cl)c2)CC1` (stereo partly drawn) [Example 18.29, 1-[3-chloro-4-({[(5′S)-3′-oxo-5′-(pyrazin-2-yl)tetrahydro-3′H-spiro[cyclobutane-1,2′-pyrrolo[2,1-b][1,3]oxazol]-3-yl]oxy}methyl)phenyl]cyclopropane-1-carbonitrile] it was 7.92; in that of `O=C1N2[C@@H](CC[C@H]2c2ccccc2)OC12CC(Oc1nncc3cccn13)C2` (stereo partly drawn) [Example 8.23, (5′S,7a′R)-5′-phenyl-3-[(pyrrolo[1,2-d][1,2,4]triazin-4-yl)oxy]tetrahydro-3′H-spiro[cyclobutane-1,2′-pyrrolo[2,1-b][1,3]oxazol]-3′-one], 7.54. In the case of `N#Cc1ccc(OC2CC3(C2)O[C@@H]2CC[C@@H](c4ccccc4)N2C3=O)cc1` (stereo partly drawn) [Example 8.9] it was 7.14. For `O=C1N2[C@@H](CC[C@H]2c2cnccn2)OC12CC(OCc1ccnc3ccnn13)C2` (stereo partly drawn) [Example 18.60, (5′S)-5′-(pyrazin-2-yl)-3-[(pyrazolo[1,5-a]pyrimidin-7-yl)methoxy]tetrahydro-3′H-spiro[cyclobutane-1,2′-pyrrolo[2,1-b][1,3]oxazol]-3′-one], the pEC50 is 7.04. With `O=C1N2C(CC[C@H]2c2cnccn2)OC12CC(OCc1cnn(-c3ccccc3)c1)C2` (stereo partly drawn) [Example 18.7, (5′S)-3-[(1-phenyl-1H-pyrazol-4-yl)methoxy]-5′-(pyrazin-2-yl)tetrahydro-3′H-spiro[cyclobutane-1,2′-pyrrolo [2,1-b][1,3]oxazol]-3′-one], the negative logarithm of the EC50 (pEC50) was 7.28. In the case of `NC(=O)c1ccnc(O[C@H]2C[C@@]3(C2)O[C@@H]2CC[C@@H](c4cc(F)cc(F)c4)N2C3=O)c1` [Example 10.2, 2-(((1r,3R,5′S,7a′R)-5′-(3,5-difluorophenyl)-3′-oxotetrahydro-3′H-spiro[cyclobutane-1,2′-pyrrolo[2,1-b]oxazol]-3-yl)oxy)isonicotinamide] it was 7.74; in that of `O=C1N2[C@@H](CC[C@H]2c2ccccc2)OC12CCC(OCc1ccccc1)CC2` (single isomer, unassigned) [Example 1.1, ((1r or s),4R,5′S,7a′R)-4-(benzyloxy)-5′-phenyltetrahydro-3′H-spiro[cyclohexane-1,2′-pyrrolo[2,1-b]oxazol]-3′-one], 6.59. In the case of `O=C1N2[C@@H](CC[C@H]2c2cnccn2)OC12CC(OCc1ccnc3nncn13)C2` (stereo partly drawn) [Example 20.4, (5′S,7a′R)-5′-(pyrazin-2-yl)-3-[([1,2,4]triazolo[4,3-a]pyrimidin-5-yl)methoxy]tetrahydro-3′H-spiro[cyclobutane-1,2′-pyrrolo[2,1-b][1,3]oxazol]-3′-one] it was 6.75; in that of `N#Cc1cc(OC2CC3(C2)O[C@@H]2CC[C@@H](c4cccc(F)c4F)N2C3=O)ncn1` (single isomer, unassigned) [Example 9.41, 6-{[(5′S,7a′R)-5′-(2,3-difluorophenyl)-3′-oxotetrahydro-3′H-spiro[cyclobutane-1,2′-pyrrolo[2,1-b][1,3]oxazol]-3-yl]oxy}pyrimidine-4-carbonitrile], 7.85; in that of “4-{[(1r,3R,5′S,7a′R)-3′-oxo-5′- phenyltetrahydro-3′H- spiro[cyclobutane-1,2′-pyrrolo[2,1- b][1,3]oxazol]-3-yl]oxy}pyrimidine- 2-carbonitrile [Example 9.18]”, 7.27.

As for `N#Cc1cccc(F)c1COC1CC2(C1)OC1CC[C@@H](c3cnccn3)N1C2=O` (stereo partly drawn) [Example 18.51, 3-fluoro-2-({[(5′S)-3′-oxo-5′-(pyrazin-2-yl)tetrahydro-3′H-spiro[cyclobutane-1,2′-pyrrolo[2,1-b][1,3]oxazol]-3-yl]oxy}methyl)benzonitrile], the pEC50 is 6.68.

For `N#Cc1ccoc1COC1CC2(C1)OC1CC[C@@H](c3cnccn3)N1C2=O` (stereo partly drawn) [Example 18.104, 2-({[(5′S)-3′-oxo-5′-(pyrazin-2-yl)tetrahydro-3′H-spiro[cyclobutane-1,2′-pyrrolo[2,1-b][1,3]oxazol]-3-yl]oxy}methyl)furan-3-carbonitrile], the pEC50 is 6.45. Under `N#Cc1cc(O[C@H]2C[C@]3(C2)O[C@@H]2CC[C@@H](c4cc(F)cc(F)c4)N2C3=O)ncn1` [Example 9.12, 6-(((1s,3S,5′S,7a′R)-5′-(3,5-difluorophenyl)-3′-oxotetrahydro-3′H-spiro[cyclobutane-1,2′-pyrrolo[2,1-b]oxazol]-3-yl)oxy)pyrimidine-4-carbonitrile] stands 6.35. Under `N#Cc1cncc(O[C@H]2C[C@@]3(C2)O[C@@H]2CC[C@@H](c4ccccc4)N2C3=O)n1` [Example 9.16, 6-{[(1r,3R,5′S,7a′R)-3′-oxo-5′-phenyltetrahydro-3′H-spiro[cyclobutane-1,2′-pyrrolo[2,1-b][1,3]oxazol]-3-yl]oxy}pyrazine-2-carbonitrile] stands 7.11; under `O=C1N2C(CC[C@H]2c2cnccn2)OC12CC(OCc1ccc3nccn3c1)C2` (stereo partly drawn) [Example 18.69, (5′S)-3-[(imidazo[1,2-a]pyridin-6-yl)methoxy]-5′-(pyrazin-2-yl)tetrahydro-3′H-spiro[cyclobutane-1,2′-pyrrolo[2,1-b][1,3]oxazol]-3′-one], 6.96. Under `O=C1N2C(CC[C@H]2c2cnccn2)OC12CC(OCc1ccc3nc(C(F)(F)F)sc3c1)C2` (stereo partly drawn) [Example 18.97, (5′S)-5′-(pyrazin-2-yl)-3-{[2-(trifluoromethyl)-1,3-benzothiazol-6-yl]methoxy}tetrahydro-3′H-spiro[cyclobutane-1,2′-pyrrolo[2,1-b][1,3]oxazol]-3′-one] stands 6.54.

For `NC(=O)c1ccnc(O[C@H]2C[C@@]3(C2)O[C@@H]2CC[C@@H](c4ccc(F)cc4)N2C3=O)c1` [Example 10.6, 2-(((1r,3R,5′S,7a′R)-5′-(4-fluorophenyl)-3′-oxotetrahydro-3′H-spiro[cyclobutane-1,2′-pyrrolo[2,1-b]oxazol]-3-yl)oxy)isonicotinamide], the pEC50 was 7.28. Under `N#CC1(c2ccc(COC3CC4(C3)OC3CC[C@@H](c5cnccn5)N3C4=O)cn2)CCC1` (stereo partly drawn) [Example 18.78, 1-[5-({[(5′S)-3′-oxo-5′-(pyrazin-2-yl)tetrahydro-3′H-spiro[cyclobutane-1,2′-pyrrolo[2,1-b][1,3]oxazol]-3-yl]oxy}methyl)pyridin-2-yl]cyclobutane-1-carbonitrile] stands 6.14.

These data come from patent publication US20250154173A1 (Merck Sharp & Dohme LLC, priority 2023, published 2025).
